Test results: ChEMBL document CHEMBL3991947, “D-serine transporter inhibitors as pharmaceutical compositions for the treatment of central nervous system disorders” (2014)
Active and inactive are the calls of the source.

Key:
[1] = species on record: Rattus norvegicus; test: Inhibition of D-serine transporter in Sprague-Dawley rat visual cortex assessed as LTP threshold after 15 mins
[2] = molecular target: T1, Amino acid transporter (Rattus norvegicus) (UniProt Q9Z1J7); test: Inhibition of ASCT2 mediated [3H]-D-serine uptake in rat hippocampal astrocytes at 1 mM after 5 mins by beta counting analysis; assay type: cell-based
T1 sequence (whole entry): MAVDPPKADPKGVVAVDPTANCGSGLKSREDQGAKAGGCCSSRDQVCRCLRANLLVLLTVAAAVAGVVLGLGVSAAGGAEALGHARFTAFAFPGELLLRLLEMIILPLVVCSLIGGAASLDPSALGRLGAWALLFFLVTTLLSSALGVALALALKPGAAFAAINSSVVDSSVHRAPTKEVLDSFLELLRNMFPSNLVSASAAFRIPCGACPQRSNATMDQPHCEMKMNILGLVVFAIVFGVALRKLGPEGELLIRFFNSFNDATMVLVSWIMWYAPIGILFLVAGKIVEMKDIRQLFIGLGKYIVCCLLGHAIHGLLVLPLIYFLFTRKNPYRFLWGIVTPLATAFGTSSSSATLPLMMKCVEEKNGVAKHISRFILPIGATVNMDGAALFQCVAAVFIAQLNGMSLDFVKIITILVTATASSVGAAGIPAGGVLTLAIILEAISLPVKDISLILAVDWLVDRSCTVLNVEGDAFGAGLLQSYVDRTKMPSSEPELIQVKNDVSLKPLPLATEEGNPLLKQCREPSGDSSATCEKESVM

[3] = molecular target: T2, Glutamate NMDA receptor (Rattus norvegicus) (UniProt P35439+Q00959+Q00960+Q00961+Q62645+Q8VHN2+Q9R1M7); test: Potentiation of NMDA receptor mediated excitatory post-synaptic currents in the CA1 region of rat hippocampal slices upto 1 hr by whole-cell patch-clamp assay
[4] = molecular target: T2, Glutamate NMDA receptor (Rattus norvegicus); test: Activation of NMDA receptor in rat visual cortex assessed as increase in theta burst stimulation of LTP after 15 mins followed by LTP induction in presence of DAAO by electrophysiological assay
[5] = system: Rattus norvegicus; test: Effect on absolute startle response in rat model of schizophrenia at 15 mg/kg; assay type: ADME, organism-based; conditions: in vivo
[6] = system: Rattus norvegicus; test: Antipsychotic activity in rat model of schizophrenia assessed as […] in prepulse inhibition at 15 mg/kg; assay type: functional, organism-based
[7] = molecular target: T2, Glutamate NMDA receptor (Rattus norvegicus); test: Potentiation of NMDA receptor mediated excitatory post-synaptic currents in the CA1 region of rat hippocampal slices after 1 hr by electrophysiological assay
[8] = molecular target: T2, Glutamate NMDA receptor (Rattus norvegicus); test: Activation of NMDA receptor in rat visual cortex assessed as increase in theta burst stimulation of LTP after 15 mins followed by LTP induction by electrophysiological assay
[9] = system: Mus musculus; test: Reduction in amphetamine-induced hyperactivity in C57B/6 mouse model of schizophrenia at 1 mg/kg administered at 30 mins after habituation in open field apparatus followed by amphetamine injection measured for 1 hr post dose; assay type: functional, organism-based
[10] = species on record: Rattus norvegicus; test: Inhibition of D-serine transporter in rat hippocampal slices assessed as increase in LTP at 100 uM
[11] = molecular target: T1, Amino acid transporter (Rattus norvegicus); test: Inhibition of ASCT2 in rat hippocampal astrocytes assessed as reduction in [3H]-D-serine uptake in presence of L-t-40HPro after 5 mins by beta counting analysis; assay type: cell-based
[12] = system: Mus musculus; test: Reduction in amphetamine-induced hyperactivity in C57B/6 mouse model of schizophrenia at 0.3 mg/kg, ip administered at 30 mins after habituation in open field apparatus followed by amphetamine injection measured for 1 hr post dose; assay type: functional, organism-based
[13] = system: Mus musculus; test: Reduction in amphetamine-induced hyperactivity in systemically dosed C57B/6 mouse model of schizophrenia administered at 30 mins after habituation in open field apparatus followed by amphetamine injection measured for 1 hr post dose; assay type: functional, organism-based
[14] = system: Rattus norvegicus; test: Effect on absolute startle response in rat model of schizophrenia at 600 mg/kg; assay type: ADME, organism-based; conditions: in vivo
[15] = system: Rattus norvegicus; test: Antipsychotic activity in rat model of schizophrenia assessed as […] in prepulse inhibition at 600 mg/kg; assay type: functional, organism-based
[16] = molecular target: T1, Amino acid transporter (Rattus norvegicus); test: Inhibition of ASCT2 in rat hippocampal astrocytes assessed as reduction in [3H]-D-serine uptake in presence of L-glutamine after 5 mins by beta counting analysis; assay type: cell-based

Row | SMILES | inhibition [2] [%] | further results
1 | N[C@H](C(=O)O)C1CC1 | > 25 | Activity [1]: 1 µM
2 | N[C@@H](CO)C(=O)O | > 25 | Activity [3]: inactive
3 | NC(C(=O)O)c1ccccc1F (configuration not stated) | > 25 | Activity [1]: > 300 µM; Activity [3]: inactive
4 | N[C@H](C(=O)O)c1ccc(O)cc1 [OXFENICINE] | > 25 | Activity [4]: inactive; Activity [1]: 10 µM; Activity [5]: Non-Toxic; Activity [6]: Active; Activity [3]: Dose-dependent effect; Activity [7]: inactive; Activity [8]: Dose-dependent effect
5 | NC(=O)C[C@H](N)C(=O)O | > 25 | Activity [1]: 3 µM; Activity [3]: inactive
6 | N[C@@H](CCC(=O)OCc1ccccc1)C(=O)O |  | Activity [3]: inactive
7 | O=C(O)[C@@H]1C[C@@H](Cc2ccc(Cl)cc2Cl)CN1 |  | Activity [9]: Active
8 | N[C@@H](CCC(=O)Nc1ccc([N+](=O)[O-])cc1)C(=O)O | > 25 | inhibition [10]: Active; Activity [1]: 100 µM; Activity [3]: inactive
9 | NC(=O)CC[C@H](N)C(=O)O | > 25 | Activity [3]: inactive; inhibition [11]: Active
10 | N[C@H](C(=O)O)c1ccc(F)cc1 | > 25 | Activity [1]: 0.3 µM; Activity [12]: Active; Activity [3]: inactive; Activity [13]: Dose-dependent effect
11 | N[C@H](CO)C(=O)O [(D)-SERINE] | > 25 | Activity [1]: 3 µM; Activity [14]: Non-Toxic; Activity [3]: inactive; Activity [15]: inactive
12 | N[C@H](C(=O)O)c1ccccc1 | > 25 | Activity [1]: 10 µM; Activity [3]: inactive
13 | N[C@@H](CCc1ccccc1)C(=O)O | > 25 | 
14 | O=C(O)[C@@H]1C[C@@H](c2ccccc2)CN1 | > 25 | 
15 | CCOC(=O)CC(N)C(=O)O (configuration not stated) | > 25 | 
16 | NC(C(=O)O)c1ccc2c(c1)OCCO2 (configuration not stated) | > 25 | 
17 | N[C@@H](CSCc1ccccc1)C(=O)O | > 25 | Activity [3]: inactive
18 | N[C@H](C(=O)O)c1ccsc1 | > 25 | 
19 | O=C(O)C1C[C@@H](Cc2csc3ccccc23)CN1 (single isomer, unassigned) | > 25 | 
20 | O=C(O)[C@@H]1NCC[C@H]1Cc1ccc(F)cc1 | > 25 | 
21 | N[C@@H](CSc1ccccc1)C(=O)O | > 25 | Activity [3]: inactive
22 | O=C(O)[C@H](CO)NCc1ccccc1 | > 25 | 
23 | O=C(O)C1C[C@@H](Cc2cccc(C(F)(F)F)c2)CN1 (single isomer, unassigned) | > 25 | 
24 | O=C(O)[C@@H]1C[C@@H](F)CN1 | > 25 | 

Row | SMILES | inhibition [2] [%] | further results
25 | O=C(O)C1C[C@@H](Cc2cccc(Br)c2)CN1 (single isomer, unassigned) | > 25 | 
26 | Nc1c(O)cccc1C(=O)CC(N)C(=O)O (configuration not stated) | > 25 | 
27 | NC(C(=O)O)c1ccc(CO)c(O)c1 (configuration not stated) | > 25 | 
28 | NC(C(=O)O)C1C2CC3CC(C2)CC1C3 (configuration not stated) | > 25 | 
29 | O=C(O)[C@@H]1C[C@@H](O)CN1 | > 25 | Activity [1]: 3 µM; inhibition [16]: Active; Activity [3]: inactive
30 | CSC[C@H](N)C(=O)O | > 25 | 
31 | CCOC(=O)CC[C@H](N)C(=O)O | > 25 | 
32 | COCC(N)C(=O)O (racemic) | > 25 | 
33 | CC(C)(C)OC(=O)N1C[C@H](C/C=C/c2ccccc2)C[C@H]1C(=O)O | > 25 | 
34 | NC(C(=O)O)c1ccccc1O (configuration not stated) | > 25 | 
35 | O=C(O)[C@@H]1CCCN1 | > 25 | Activity [3]: inactive
36 | O=C(O)C1C[C@@H](Cc2ccc(Cl)c(Cl)c2)CN1 (single isomer, unassigned) | > 25 | 
37 | N[C@@H](Cc1csc2ccccc12)C(=O)O | > 25 | 
38 | C[C@H](O)[C@H](N)C(=O)O | > 25 | 
39 | N[C@@H](CC1CCCC1)C(=O)O | > 25 | 
40 | O=C(O)C1C[C@@H](Cc2ccsc2)CN1 (single isomer, unassigned) | > 25 | 
41 | C[C@@H](O)[C@H](N)C(=O)O | > 25 | 
42 | COC(=O)CC[C@H](N)C(=O)O | > 25 | 
43 | N[C@H]1CCSC1=O | > 25 | 
44 | NC(C(=O)O)c1ccc(O)c(O)c1 (configuration not stated) | > 25 | 
45 | CC(=O)OC[C@H](N)C(=O)O | > 25 | 
46 | O=C(O)[C@@H]1C[C@@H](Cc2cccc(Cl)c2)CN1 | > 25 | 
47 | NC1(C(=O)O)CCCC1 | > 25 | 
48 | NC(C(=O)O)c1cccc(C(F)(F)F)c1 (configuration not stated) | > 25 | 
